Earlier results as cited in patent US12090222B2, “Method for dyeing keratin material, comprising the use of an organosilicon compound, two dyeing compounds and a post-treatment agent” (Henkel AG & Co. KGaA, priority 2020, dated 2024).

Conditions: 25° C.

Row | Compound | solubility in water | solubility in water (in words)
1 | O=S(=O)([O-])c1ccc(N=Nc2c(O)ccc3ccccc23)cc1.[Na+] [Acid Orange 7, sodium salt of 4-[(2-hydroxy-1-naphthyl)azo]benzene sulphonate] | more than 7 g/L | 
2 | Nc1cc(S(=O)(=O)[O-])cc2cc(S(=O)(=O)[O-])c(N=Nc3ccccc3)c(O)c12.[Na+].[Na+] [Acid Red 33, disodium salt of 5-amino-4-hydroxy-3-(phenylazo)-naphthalene-2,7-disulphonate] | about 2.5 g/L | 
3 | O=C([O-])c1c(Cl)c(Cl)c(Cl)c(Cl)c1-c1c2c(Br)cc(=O)c(Br)c-2oc2c(Br)c(O)cc(Br)c12.O=C([O-])c1c(Cl)c(Cl)c(Cl)c(Cl)c1-c1c2c(Br)cc(=O)c(Br)c-2oc2c(Br)c(O)cc(Br)c12.[Na+].[Na+] [Acid Red 92, disodium salt of 3,4,5,6-tetrachloro-2-(1,4,5,8-tetrabromo-6-hydroxy-3-oxoxanthen-9-yl)benzoic acid] | greater than 10 g/L | 
4 | O=C([O-])C1=NN(c2ccc(S(=O)(=O)[O-])cc2)C(=O)C1N=Nc1ccc(S(=O)(=O)[O-])cc1.[Na+].[Na+].[Na+] (centres unmarked) [Acid Yellow 23, trisodium salt of 4,5-dihydro-5-oxo-1-(4-sulfophenyl)-4-((4-sulfophenyl)azo)-1H-pyrazole-3-carboxylic acid] |  | highly soluble
5 | mixture of the sodium salts of mono- and disulfonic acids of 2-(2-quinolyl)-1H-indene-1,3(2H)-dione [Acid Yellow 3] | about 20 g/L | 
